Literature values in PubChem BioAssay AID1259409 (Chemical Carcinogenesis Research Information System (CCRIS), 2018).

Test system: rodent chemically induced tumor inhibition, incidence and multiplicity
Assay: CCRIS tumor inhibitor studies
Conditions: Route [Inhibitor]: ORAL, Species: RAT, Promoter: NONE USED

CC1=C(/C=C/C(C)=C/C=C/C(C)=C/C(=O)NCCO)C(C)(C)CCC1
tumour outcome (control, treated, inhibition, significance) (Carcinogen: 1,2-DIMETHYLHYDRAZINE, 540-73-8, Dose [Inhibitor]: 2 MMOL/KG DIET DAILY STARTING 12 D AFTER CARCINOGEN TREATMENT THROUGH ABOUT 8 MO AFTER CARCINOGEN DOSE (STUDY DURATION:, Strain/Sex: F344/MALE, Target Tissue: Type of Lesion: COLON: ADENOCARCINOMA, Dose [Carcinogen]: 150 MG/KG BW ONCE): 10/39 (26%), 5/30 (17%), 35%, not significant
tumour outcome (control, treated, inhibition, significance) (Carcinogen: 1,2-DIMETHYLHYDRAZINE, 540-73-8, Dose [Inhibitor]: 2 MMOL/KG DIET DAILY STARTING 12 D AFTER CARCINOGEN TREATMENT THROUGH ABOUT 8 MO AFTER CARCINOGEN DOSE (STUDY DURATION:, Strain/Sex: F344/MALE, Target Tissue: Type of Lesion: COLON: ADENOMA, Dose [Carcinogen]: 150 MG/KG BW ONCE): 23/39 (59%), 11/30 (37%), 37%, not significant
tumour outcome (control, treated, inhibition, significance) (Carcinogen: L-AZASERINE, 115-02-6, Dose [Inhibitor]: 1 MMOL/KG DIET DAILY FOR 358 D STARTING 1 WK AFTER COMPLETION OF CARCINOGEN TREATMENT (STUDY DURATION: 66 WK), Strain/Sex: WISTAR-LEWIS/FEMALE, Target Tissue: Type of Lesion: PANCREAS: ADENOMA, Dose [Carcinogen]: 10 MG/KG BW 1/WK FOR 15 WK): 50%, 25%, 50%, not significant
tumour outcome (control, treated, inhibition, significance) (Carcinogen: L-AZASERINE, 115-02-6, Dose [Inhibitor]: 1 MMOL/KG DIET DAILY FOR 358 D STARTING 1 WK AFTER COMPLETION OF CARCINOGEN TREATMENT (STUDY DURATION: 66 WK), Strain/Sex: WISTAR-LEWIS/FEMALE, Target Tissue: Type of Lesion: PANCREAS: CARCINOMA IN SITU, Dose [Carcinogen]: 10 MG/KG BW 1/WK FOR 15 WK): 8%, 25%, -213%, not calculated
tumour outcome (control, treated, inhibition, significance) (Carcinogen: L-AZASERINE, 115-02-6, Dose [Inhibitor]: 1 MMOL/KG DIET DAILY FOR 358 D STARTING 1 WK AFTER COMPLETION OF CARCINOGEN TREATMENT (STUDY DURATION: 66 WK), Strain/Sex: WISTAR-LEWIS/FEMALE, Target Tissue: Type of Lesion: PANCREAS: CARCINOMA, Dose [Carcinogen]: 10 MG/KG BW 1/WK FOR 15 WK): 13%, 0%, 100%, not significant
tumour outcome (control, treated, inhibition, significance) (Carcinogen: L-AZASERINE, 115-02-6, Dose [Inhibitor]: 1 MMOL/KG DIET DAILY FOR 358 D STARTING 1 WK AFTER COMPLETION OF CARCINOGEN TREATMENT (STUDY DURATION: 66 WK), Strain/Sex: WISTAR-LEWIS/FEMALE, Target Tissue: Type of Lesion: PANCREAS: NEOPLASM, Dose [Carcinogen]: 10 MG/KG BW 1/WK FOR 15 WK): 71%, 50%, 30%, p 0.14
tumour outcome (control, treated, inhibition, significance) (Carcinogen: L-AZASERINE, 115-02-6, Dose [Inhibitor]: 1 MMOL/KG DIET DAILY FOR 358 D STARTING 1 WK AFTER COMPLETION OF CARCINOGEN TREATMENT (STUDY DURATION: 66 WK), Strain/Sex: WISTAR-LEWIS/MALE, Target Tissue: Type of Lesion: PANCREAS: ADENOMA, Dose [Carcinogen]: 10 MG/KG BW 1/WK FOR 15 WK): 25%, 56%, -124%, not calculated
tumour outcome (control, treated, inhibition, significance) (Carcinogen: L-AZASERINE, 115-02-6, Dose [Inhibitor]: 1 MMOL/KG DIET DAILY FOR 358 D STARTING 1 WK AFTER COMPLETION OF CARCINOGEN TREATMENT (STUDY DURATION: 66 WK), Strain/Sex: WISTAR-LEWIS/MALE, Target Tissue: Type of Lesion: PANCREAS: CARCINOMA IN SITU, Dose [Carcinogen]: 10 MG/KG BW 1/WK FOR 15 WK): 29%, 28%, 3%, not significant
tumour outcome (control, treated, inhibition, significance) (Carcinogen: L-AZASERINE, 115-02-6, Dose [Inhibitor]: 1 MMOL/KG DIET DAILY FOR 358 D STARTING 1 WK AFTER COMPLETION OF CARCINOGEN TREATMENT (STUDY DURATION: 66 WK), Strain/Sex: WISTAR-LEWIS/MALE, Target Tissue: Type of Lesion: PANCREAS: CARCINOMA, Dose [Carcinogen]: 10 MG/KG BW 1/WK FOR 15 WK): 46%, 8%, 83%, p<0.05
tumour outcome (control, treated, inhibition, significance) (Carcinogen: L-AZASERINE, 115-02-6, Dose [Inhibitor]: 1 MMOL/KG DIET DAILY FOR 358 D STARTING 1 WK AFTER COMPLETION OF CARCINOGEN TREATMENT (STUDY DURATION: 66 WK), Strain/Sex: WISTAR-LEWIS/MALE, Target Tissue: Type of Lesion: PANCREAS: NEOPLASM, Dose [Carcinogen]: 10 MG/KG BW 1/WK FOR 15 WK): 100%, 92%, 8%, not significant
tumour outcome (control, treated, inhibition, significance) (Carcinogen: L-AZASERINE, 115-02-6, Dose [Inhibitor]: 2.0 MMOL/KG DIET DAILY FOR 336 D OUT OF 358 D STARTING 1 WK AFTER COMPLETION OF CARCINOGEN TREATMENT (STUDY DURATION: 66, Strain/Sex: WISTAR-LEWIS/FEMALE, Target Tissue: Type of Lesion: PANCREAS: NEOPLASM (ADENOMA, CARCINOMA IN SITU, CARCINOMA), Dose [Carcinogen]: 10 MG/KG BW 1/WK FOR 15 WK STARTING 15 WK PRIOR TO AGENT TREATMENT): ?/24 (71%), ?/24 (25%), 65%, p<0.05
tumour outcome (control, treated, inhibition, significance) (Carcinogen: L-AZASERINE, 115-02-6, Dose [Inhibitor]: 2 MMOL/KG DIET DAILY FOR 336 D OUT OF 358 D STARTING 1 WK AFTER COMPLETION OF CARCINOGEN TREATMENT (STUDY DURATION: 66 W, Strain/Sex: WISTAR-LEWIS/FEMALE, Target Tissue: Type of Lesion: PANCREAS: ADENOMA, Dose [Carcinogen]: 10 MG/KG BW 1/WK FOR 15 WK): 50%, 13%, 74%, not significant
tumour outcome (control, treated, inhibition, significance) (Carcinogen: L-AZASERINE, 115-02-6, Dose [Inhibitor]: 2 MMOL/KG DIET DAILY FOR 336 D OUT OF 358 D STARTING 1 WK AFTER COMPLETION OF CARCINOGEN TREATMENT (STUDY DURATION: 66 W, Strain/Sex: WISTAR-LEWIS/FEMALE, Target Tissue: Type of Lesion: PANCREAS: CARCINOMA IN SITU, Dose [Carcinogen]: 10 MG/KG BW 1/WK FOR 15 WK): 8%, 13%, -63%, not significant
tumour outcome (control, treated, inhibition, significance) (Carcinogen: L-AZASERINE, 115-02-6, Dose [Inhibitor]: 2 MMOL/KG DIET DAILY FOR 336 D OUT OF 358 D STARTING 1 WK AFTER COMPLETION OF CARCINOGEN TREATMENT (STUDY DURATION: 66 W, Strain/Sex: WISTAR-LEWIS/FEMALE, Target Tissue: Type of Lesion: PANCREAS: CARCINOMA, Dose [Carcinogen]: 10 MG/KG BW 1/WK FOR 15 WK STARTING 15 WK PRIOR TO AGENT TREATMENT): ?/24 (13%), ?/24 (0%), 100%, not significant
tumour outcome (control, treated, inhibition, significance) (Carcinogen: L-AZASERINE, 115-02-6, Dose [Inhibitor]: 2 MMOL/KG DIET DAILY FOR 336 D OUT OF 358 D STARTING 1 WK AFTER COMPLETION OF CARCINOGEN TREATMENT (STUDY DURATION: 66 W, Strain/Sex: WISTAR-LEWIS/MALE, Target Tissue: Type of Lesion: PANCREAS: ADENOMA, Dose [Carcinogen]: 10 MG/KG BW 1/WK FOR 15 WK): 25%, 28%, -12%, not significant
tumour outcome (control, treated, inhibition, significance) (Carcinogen: L-AZASERINE, 115-02-6, Dose [Inhibitor]: 2 MMOL/KG DIET DAILY FOR 336 D OUT OF 358 D STARTING 1 WK AFTER COMPLETION OF CARCINOGEN TREATMENT (STUDY DURATION: 66 W, Strain/Sex: WISTAR-LEWIS/MALE, Target Tissue: Type of Lesion: PANCREAS: CARCINOMA IN SITU, Dose [Carcinogen]: 10 MG/KG BW 1/WK FOR 15 WK): 29%, 44%, -52%, not significant
tumour outcome (control, treated, inhibition, significance) (Carcinogen: L-AZASERINE, 115-02-6, Dose [Inhibitor]: 2 MMOL/KG DIET DAILY FOR 336 D OUT OF 358 D STARTING 1 WK AFTER COMPLETION OF CARCINOGEN TREATMENT (STUDY DURATION: 66 W, Strain/Sex: WISTAR-LEWIS/MALE, Target Tissue: Type of Lesion: PANCREAS: CARCINOMA, Dose [Carcinogen]: 10 MG/KG BW 1/WK FOR 15 WK): 46%, 4%, 91%, p<0.05
tumour outcome (control, treated, inhibition, significance) (Carcinogen: L-AZASERINE, 115-02-6, Dose [Inhibitor]: 2 MMOL/KG DIET DAILY FOR 336 D OUT OF 358 D STARTING 1 WK AFTER COMPLETION OF CARCINOGEN TREATMENT (STUDY DURATION: 66 W, Strain/Sex: WISTAR-LEWIS/MALE, Target Tissue: Type of Lesion: PANCREAS: NEOPLASM, Dose [Carcinogen]: 10 MG/KG BW 1/WK FOR 15 WK): 100%, 76%, 24%, not significant
tumour outcome (control, treated, inhibition, significance) (Carcinogen: N-(4-(5-NITRO-2-FURYL)-2-THIAZOLYL)FORMAMIDE, 24554-26-5, Dose [Inhibitor]: 343 MG/KG DIET DAILY FOR 39 WK STARTING ONE WK FOLLOWING THE TERMINATION OF CARCINOGEN ADMINISTRATION (STUDY DURATION: 5, Strain/Sex: F344/FEMALE, Target Tissue: Type of Lesion: URINARY BLADDER: CARCINOMA, Dose [Carcinogen]: 2 G/KG IN DIET DAILY FOR 10 WK): 105/200 (53%), 67/100 (67%), -26%, p 0.0167
tumour outcome (control, treated, inhibition, significance) (Carcinogen: N-(4-(5-NITRO-2-FURYL)-2-THIAZOLYL)FORMAMIDE, 24554-26-5, Dose [Inhibitor]: 343 MG/KG/D IN DIET FOR 39 WK STARTING 1 WK POST CARCINOGEN TREATMENT (STUDY DURATION: 50 WK), Strain/Sex: F344/FEMALE, Target Tissue: Type of Lesion: URINARY BLADDER: CARCINOMA, Dose [Carcinogen]: 2 G/KG/D IN DIET FOR 10 WK): 105/200 (53%), 67/100 (67%), -26%, p 0.0167
tumour outcome (control, treated, inhibition, significance) (Carcinogen: N-(4-(5-NITRO-2-FURYL)-2-THIAZOLYL)FORMAMIDE, 24554-26-5, Dose [Inhibitor]: 343 MG/KG/D IN DIET FOR 39 WK STARTING 1 WK POST CARCINOGEN TREATMENT (STUDY DURATION: 50 WK), Strain/Sex: F344/FEMALE, Target Tissue: Type of Lesion: URINARY BLADDER: PAPILLOMA, Dose [Carcinogen]: 2 G/KG/D IN DIET FOR 10 WK): 15/200 (7.5%), 24/100 (24%), -220%, p 0.00006
tumour outcome (control, treated, inhibition, significance) (Carcinogen: N-(4-(5-NITRO-2-FURYL)-2-THIAZOLYL)FORMAMIDE, 24554-26-5, Dose [Inhibitor]: 686 MG/KG DIET DAILY FOR 39 WK STARTING ONE WK FOLLOWING THE TERMINATION OF CARCINOGEN ADMINISTRATION (STUDY DURATION: 5, Strain/Sex: F344/FEMALE, Target Tissue: Type of Lesion: URINARY BLADDER: CARCINOMA, Dose [Carcinogen]: 2 G/KG IN DIET DAILY FOR 10 WK): 105/200 (53%), 49/100 (49%), 8%, p 0.5657
tumour outcome (control, treated, inhibition, significance) (Carcinogen: N-(4-(5-NITRO-2-FURYL)-2-THIAZOLYL)FORMAMIDE, 24554-26-5, Dose [Inhibitor]: 686 MG/KG DIET DAILY FOR 39 WK STARTING ONE WK FOLLOWING THE TERMINATION OF CARCINOGEN ADMINISTRATION (STUDY DURATION: 5, Strain/Sex: F344/FEMALE, Target Tissue: Type of Lesion: URINARY BLADDER: PAPILLOMA, Dose [Carcinogen]: 2 G/KG IN DIET DAILY FOR 10 WK): 15/200 (8%), 17/100 (17%), -113%, p 0.012
